Results from patent publication US7935687B2, “Methods for treating spinal muscular atrophy using tetracycline compounds” (Paratek Pharmaceuticals, Inc., priority 2007, dated 2011).

Experiments:
S. aureus (SA RN450) = experiment: Antibacterial MIC, gram positive; format: cell-based; conditions: CLSI methodology, 35° C., 18-24 hours
E. coli (EC D1-209) = experiment: Antibacterial MIC, gram negative; format: cell-based; conditions: CLSI methodology, 35° C., 18-24 hours

CN(C)C1C(O)=C(C(N)=O)C(=O)C2(O)C(O)=C3C(=O)c4c(O)ccc(-c5ccccc5)c4CC3CC12 (stereo not drawn) [AQ]
MIC Gram Positive (SA RN450) (S. aureus (SA RN450)): *** (Good antibacterial activity (e.g., less than about 4 μg/mL)) | MIC Gram Negative (EC D1-209) (E. coli (EC D1-209)): ** (modest antibacterial activity (between about 4 and 8 μg/mL))

CCCCNC(=O)c1cccc(-c2ccc(O)c3c2CC2CC4C(N(C)C)C(O)=C(C(N)=O)C(=O)C4(O)C(O)=C2C3=O)c1 (stereo not drawn) [F]
MIC Gram Positive (SA RN450) (S. aureus (SA RN450)): *** (Good antibacterial activity (e.g., less than about 4 μg/mL)) | MIC Gram Negative (EC D1-209) (E. coli (EC D1-209)): * (weak antibacterial activity (greater than about 8 μg/mL))

CN(C)CCCNC(=O)c1cccc(-c2cc(N(C)C)c3c(c2O)C(=O)C2=C(O)[C@]4(O)C(=O)C(C(N)=O)=C(O)[C@@H](N(C)C)[C@@H]4C[C@@H]2C3)c1 [Compound X]
MIC Gram Positive (SA RN450) (S. aureus (SA RN450)): * (weak antibacterial activity (greater than about 8 μg/mL)) | MIC Gram Negative (EC D1-209) (E. coli (EC D1-209)): * (weak antibacterial activity (greater than about 8 μg/mL))

CN(C)CCCOc1ccc(-c2ccc(O)c3c2CC2CC4C(N(C)C)C(O)=C(C(N)=O)C(=O)C4(O)C(O)=C2C3=O)cn1 (stereo not drawn) [W]
MIC Gram Positive (SA RN450) (S. aureus (SA RN450)): *** (Good antibacterial activity (e.g., less than about 4 μg/mL)) | MIC Gram Negative (EC D1-209) (E. coli (EC D1-209)): *** (Good antibacterial activity (e.g., less than about 4 μg/mL))

C=CCNCC(=O)c1ccc(O)c2c1CC1CC3C(N(C)C)C(O)=C(C(N)=O)C(=O)C3(O)C(O)=C1C2=O (stereo not drawn) [BV]
MIC Gram Positive (SA RN450) (S. aureus (SA RN450)): *** (Good antibacterial activity (e.g., less than about 4 μg/mL)) | MIC Gram Negative (EC D1-209) (E. coli (EC D1-209)): * (weak antibacterial activity (greater than about 8 μg/mL))

CN(C)Cc1ccc(-c2ccc(O)c3c2CC2CC4C(N(C)C)C(O)=C(C(N)=O)C(=O)C4(O)C(O)=C2C3=O)[nH]1 (stereo not drawn) [BK]
MIC Gram Positive (SA RN450) (S. aureus (SA RN450)): *** (Good antibacterial activity (e.g., less than about 4 μg/mL)) | MIC Gram Negative (EC D1-209) (E. coli (EC D1-209)): * (weak antibacterial activity (greater than about 8 μg/mL))

CN(C)C1C(O)=C(C(N)=O)C(=O)C2(O)C(O)=C3C(=O)c4c(O)ccc(-c5cnc6ccccc6c5)c4CC3CC12 (stereo not drawn) [G]
MIC Gram Positive (SA RN450) (S. aureus (SA RN450)): *** (Good antibacterial activity (e.g., less than about 4 μg/mL)) | MIC Gram Negative (EC D1-209) (E. coli (EC D1-209)): * (weak antibacterial activity (greater than about 8 μg/mL))

CN(C)CCC(=NOC(C)(C)C)c1ccc(O)c2c1CC1CC3C(N(C)C)C(O)=C(C(N)=O)C(=O)C3(O)C(O)=C1C2=O (stereo not drawn) [Compound CJ]
MIC Gram Positive (SA RN450) (S. aureus (SA RN450)): *** (Good antibacterial activity (e.g., less than about 4 μg/mL)) | MIC Gram Negative (EC D1-209) (E. coli (EC D1-209)): * (weak antibacterial activity (greater than about 8 μg/mL))

CN(C)CCc1ccc(O)c2c1CC1CC3C(N(C)C)C(O)=C(C(N)=O)C(=O)C3(O)C(O)=C1C2=O (stereo not drawn) [Compound BD]
MIC Gram Positive (SA RN450) (S. aureus (SA RN450)): *** (Good antibacterial activity (e.g., less than about 4 μg/mL)) | MIC Gram Negative (EC D1-209) (E. coli (EC D1-209)): * (weak antibacterial activity (greater than about 8 μg/mL))

CN(C)CCC(=O)c1ccc(O)c2c1CC1CC3C(N(C)C)C(O)=C(C(N)=O)C(=O)C3(O)C(O)=C1C2=O (stereo not drawn) [AV]
MIC Gram Positive (SA RN450) (S. aureus (SA RN450)): *** (Good antibacterial activity (e.g., less than about 4 μg/mL)) | MIC Gram Negative (EC D1-209) (E. coli (EC D1-209)): * (weak antibacterial activity (greater than about 8 μg/mL))

CN(C)CCNC(=O)c1ccc(-c2ccc(O)c3c2CC2CC4C(N(C)C)C(O)=C(C(N)=O)C(=O)C4(O)C(O)=C2C3=O)cc1 (stereo not drawn) [AD]
MIC Gram Positive (SA RN450) (S. aureus (SA RN450)): *** (Good antibacterial activity (e.g., less than about 4 μg/mL)) | MIC Gram Negative (EC D1-209) (E. coli (EC D1-209)): * (weak antibacterial activity (greater than about 8 μg/mL))

CN(C)c1cc(-c2cccc(C(N)=O)c2)c(O)c2c1CC1CC3C(N(C)C)C(O)=C(C(N)=O)C(=O)C3(O)C(O)=C1C2=O (stereo not drawn) [CD]
MIC Gram Positive (SA RN450) (S. aureus (SA RN450)): ** (modest antibacterial activity (between about 4 and 8 μg/mL)) | MIC Gram Negative (EC D1-209) (E. coli (EC D1-209)): * (weak antibacterial activity (greater than about 8 μg/mL))

CN(C)C1C(O)=C(C(N)=O)C(=O)C2(O)C(O)=C3C(=O)c4c(O)ccc(-c5cccc(C(N)=O)c5)c4CC3CC12 (stereo not drawn) [AE]
MIC Gram Positive (SA RN450) (S. aureus (SA RN450)): *** (Good antibacterial activity (e.g., less than about 4 μg/mL)) | MIC Gram Negative (EC D1-209) (E. coli (EC D1-209)): * (weak antibacterial activity (greater than about 8 μg/mL))

COCC(=O)c1ccc(O)c2c1CC1CC3C(N(C)C)C(O)=C(C(N)=O)C(=O)C3(O)C(O)=C1C2=O (stereo not drawn) [BW]
MIC Gram Positive (SA RN450) (S. aureus (SA RN450)): *** (Good antibacterial activity (e.g., less than about 4 μg/mL)) | MIC Gram Negative (EC D1-209) (E. coli (EC D1-209)): * (weak antibacterial activity (greater than about 8 μg/mL))

CN1CCN(CC(=O)c2ccc(O)c3c2CC2CC4C(N(C)C)C(O)=C(C(N)=O)C(=O)C4(O)C(O)=C2C3=O)CC1 (stereo not drawn) [BB]
MIC Gram Positive (SA RN450) (S. aureus (SA RN450)): *** (Good antibacterial activity (e.g., less than about 4 μg/mL)) | MIC Gram Negative (EC D1-209) (E. coli (EC D1-209)): * (weak antibacterial activity (greater than about 8 μg/mL))

CC1=NCCN1CC(=O)c1ccc(O)c2c1CC1CC3C(N(C)C)C(O)=C(C(N)=O)C(=O)C3(O)C(O)=C1C2=O (stereo not drawn) [CH]
MIC Gram Positive (SA RN450) (S. aureus (SA RN450)): ** (modest antibacterial activity (between about 4 and 8 μg/mL)) | MIC Gram Negative (EC D1-209) (E. coli (EC D1-209)): * (weak antibacterial activity (greater than about 8 μg/mL))

CN(C)CCN(C)C(=O)c1cccc(-c2ccc(O)c3c2CC2CC4C(N(C)C)C(O)=C(C(N)=O)C(=O)C4(O)C(O)=C2C3=O)c1 (stereo not drawn) [R]
MIC Gram Positive (SA RN450) (S. aureus (SA RN450)): *** (Good antibacterial activity (e.g., less than about 4 μg/mL)) | MIC Gram Negative (EC D1-209) (E. coli (EC D1-209)): * (weak antibacterial activity (greater than about 8 μg/mL))

CN(C)C1C(O)=C(C(N)=O)C(=O)C2(O)C(O)=C3C(=O)c4c(O)ccc(C(=O)CNCc5ccccn5)c4CC3CC12 (stereo not drawn) [BY]
MIC Gram Positive (SA RN450) (S. aureus (SA RN450)): *** (Good antibacterial activity (e.g., less than about 4 μg/mL)) | MIC Gram Negative (EC D1-209) (E. coli (EC D1-209)): * (weak antibacterial activity (greater than about 8 μg/mL))

CN(CCOC(C)(C)C)Cc1cccc(-c2ccc(O)c3c2CC2CC4C(N(C)C)C(O)=C(C(N)=O)C(=O)C4(O)C(O)=C2C3=O)c1 (stereo not drawn) [BM]
MIC Gram Positive (SA RN450) (S. aureus (SA RN450)): *** (Good antibacterial activity (e.g., less than about 4 μg/mL)) | MIC Gram Negative (EC D1-209) (E. coli (EC D1-209)): ** (modest antibacterial activity (between about 4 and 8 μg/mL))

CN1CCN(C(=O)c2cccc(-c3ccc(O)c4c3CC3CC5C(N(C)C)C(O)=C(C(N)=O)C(=O)C5(O)C(O)=C3C4=O)c2)CC1 (stereo not drawn) [Compound C]
MIC Gram Positive (SA RN450) (S. aureus (SA RN450)): *** (Good antibacterial activity (e.g., less than about 4 μg/mL)) | MIC Gram Negative (EC D1-209) (E. coli (EC D1-209)): * (weak antibacterial activity (greater than about 8 μg/mL))

COCCNCc1ccc(-c2ccc(O)c3c2CC2CC4C(N(C)C)C(O)=C(C(N)=O)C(=O)C4(O)C(O)=C2C3=O)cc1 (stereo not drawn) [BG]
MIC Gram Positive (SA RN450) (S. aureus (SA RN450)): *** (Good antibacterial activity (e.g., less than about 4 μg/mL)) | MIC Gram Negative (EC D1-209) (E. coli (EC D1-209)): *** (Good antibacterial activity (e.g., less than about 4 μg/mL))

COc1ccc(CN(C)C)cc1-c1ccc(O)c2c1CC1CC3C(N(C)C)C(O)=C(C(N)=O)C(=O)C3(O)C(O)=C1C2=O (stereo not drawn) [AT]
MIC Gram Positive (SA RN450) (S. aureus (SA RN450)): *** (Good antibacterial activity (e.g., less than about 4 μg/mL)) | MIC Gram Negative (EC D1-209) (E. coli (EC D1-209)): *** (Good antibacterial activity (e.g., less than about 4 μg/mL))

CN(C)CC(=O)N1CC=C(c2ccc(O)c3c2CC2CC4C(N(C)C)C(O)=C(C(N)=O)C(=O)C4(O)C(O)=C2C3=O)CC1 (stereo not drawn) [Compound AL]
MIC Gram Positive (SA RN450) (S. aureus (SA RN450)): *** (Good antibacterial activity (e.g., less than about 4 μg/mL)) | MIC Gram Negative (EC D1-209) (E. coli (EC D1-209)): * (weak antibacterial activity (greater than about 8 μg/mL))

CN1CCN(C(=O)c2cccc(-c3ccc(O)c4c3CC3CC5C(N(C)C)C(O)=C(C(N)=O)C(=O)C5(O)C(O)=C3C4=O)c2)CC1 (stereo not drawn) [D]
MIC Gram Positive (SA RN450) (S. aureus (SA RN450)): * (weak antibacterial activity (greater than about 8 μg/mL)) | MIC Gram Negative (EC D1-209) (E. coli (EC D1-209)): * (weak antibacterial activity (greater than about 8 μg/mL))

CN(C)CCNC(=O)c1cccc(-c2ccc(O)c3c2C[C@H]2C[C@H]4CC(O)=C(C(N)=O)C(=O)[C@@]4(O)C(O)=C2C3=O)c1 [Compound Z, (4aS,5aR,12aS)-7-[3-(2-Dimethylamino-ethylcarbamoyl)-phenyl]-3,10,12,12a-tetrahydroxy-1,11-dioxo-1,4,4a,5,5a,6,11,12a-octahydro-naphthacene-2-carboxylic Acid Amide]
MIC (S. aureus (SA RN450); Staphylococcus aureus): > 8 mg/L | MIC (E. coli (EC D1-209); Escherichia coli): > 8 mg/L

CN(C)CCNC(=O)c1cccc(-c2ccc(O)c3c2CC2CC4C(N(C)C)C(O)=C(C(N)=O)C(=O)C4(O)C(O)=C2C3=O)c1F (stereo not drawn) [AP]
MIC Gram Positive (SA RN450) (S. aureus (SA RN450)): *** (Good antibacterial activity (e.g., less than about 4 μg/mL)) | MIC Gram Negative (EC D1-209) (E. coli (EC D1-209)): * (weak antibacterial activity (greater than about 8 μg/mL))

CN(C)CC(=O)Nc1ccc(-c2ccc(O)c3c2CC2CC4C(N(C)C)C(O)=C(C(N)=O)C(=O)C4(O)C(O)=C2C3=O)cc1 (stereo not drawn) [BC]
MIC Gram Positive (SA RN450) (S. aureus (SA RN450)): *** (Good antibacterial activity (e.g., less than about 4 μg/mL)) | MIC Gram Negative (EC D1-209) (E. coli (EC D1-209)): *** (Good antibacterial activity (e.g., less than about 4 μg/mL))
